In publication PMC3340383, “Synthesis and Evaluation of a Series of 2-Substituted-5-Thiopropylpiperazine (Piperidine)-1,3,4-Oxadiazoles Derivatives as Atypical Antipsychotics” (PLoS ONE, 2012):
Where two headings read alike, the source gives them in different places.

How the values were obtained:
[1] = molecular target: T1, dopamine D3 receptor (Rattus norvegicus, UniProt P19020); experiment: D3 dopaminergic binding assay ([3H]spiperone, rat olfactory tubercle); conditions: mean of three experiments, read-out: Ki±SEM, D3
T1 construct: Rat olfactory tubercle was homogenized in 20 volumes of ice-cold 50 mM Hepes Na; from tissue; host or cells: rat olfactory tubercle
T1 sequence (P19020 whole entry): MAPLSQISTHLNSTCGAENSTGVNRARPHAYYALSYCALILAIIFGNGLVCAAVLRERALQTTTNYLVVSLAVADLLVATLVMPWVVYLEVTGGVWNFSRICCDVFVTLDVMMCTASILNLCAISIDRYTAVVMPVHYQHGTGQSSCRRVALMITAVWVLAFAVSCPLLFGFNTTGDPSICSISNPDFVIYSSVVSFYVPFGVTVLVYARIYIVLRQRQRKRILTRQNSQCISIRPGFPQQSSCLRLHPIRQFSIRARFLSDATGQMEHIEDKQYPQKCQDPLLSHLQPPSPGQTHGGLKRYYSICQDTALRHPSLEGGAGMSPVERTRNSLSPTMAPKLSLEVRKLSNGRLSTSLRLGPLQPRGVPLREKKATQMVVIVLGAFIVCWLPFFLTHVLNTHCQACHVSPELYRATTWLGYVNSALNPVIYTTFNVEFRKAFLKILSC
Description: (§1) All the new compounds were dissolved in 5% DMSO. The following specific radioligands and tissue sources were used: (a) serotonin 5-HT1A receptor, [^3H]8-OH-DPAT, rat brain cortex; (b) serotonin 5-HT2A receptor, [^3H]ketanserin, rat brain cortex; (c) serotonin 5-HT2C receptor, [^3H]mesulergine, rat brain cortex; (d) dopamine D2 receptor, [^3H]spiperone, rat striatum; (e) dopamine D3 receptor, [^3H]spiperone, rat olfactory tubercle (f) histamine H1 receptor, [^3H] pyrilamine, guinea pig cerebellum.
(§2) Total binding was determined in the absence of no-specific binding and compounds. Specific binding was determined in the presence of compounds. Non-specific binding was determined as the difference between total and specific binding.
(§3) Percentage of inhibition (%) = (total binding − specific binding)×100%/(total binding − nonspecific binding).
(§4) Ki values were calculated based on the Cheng and Prussoff equation: Ki = IC50/(1+C/Kd) where C represents the concentration of the hot ligand used and Kd its receptor dissociation constant were calculated for each labeled ligand. Mean Ki values and SEM were reported for at least three independent experiments.
(§5) The incubation was followed by a rapid vacuum filtration through Whatman GF/B glass filters, and the filtrates were washed twice with 5 mL cold buffer and transferred to scintillation vials. Scintillation fluid (3.0 mL) was added and the radioactivity bound was measured using a Beckman LS 6500 liquid scintillation counter.

[2] = molecular target: T2, serotonin 5-HT2A receptor (Rattus norvegicus, UniProt P14842); experiment: 5-HT2A binding assay ([3H]ketanserin, rat brain cortex); conditions: read-out: Ki±SEM, 5HT2A
T2 construct: Rat cerebral cortex was homogenized in 20 volumes of ice-cold Tris-HCl buffer; from tissue; host or cells: rat brain (cerebral) cortex
T2 sequence (P14842 whole entry): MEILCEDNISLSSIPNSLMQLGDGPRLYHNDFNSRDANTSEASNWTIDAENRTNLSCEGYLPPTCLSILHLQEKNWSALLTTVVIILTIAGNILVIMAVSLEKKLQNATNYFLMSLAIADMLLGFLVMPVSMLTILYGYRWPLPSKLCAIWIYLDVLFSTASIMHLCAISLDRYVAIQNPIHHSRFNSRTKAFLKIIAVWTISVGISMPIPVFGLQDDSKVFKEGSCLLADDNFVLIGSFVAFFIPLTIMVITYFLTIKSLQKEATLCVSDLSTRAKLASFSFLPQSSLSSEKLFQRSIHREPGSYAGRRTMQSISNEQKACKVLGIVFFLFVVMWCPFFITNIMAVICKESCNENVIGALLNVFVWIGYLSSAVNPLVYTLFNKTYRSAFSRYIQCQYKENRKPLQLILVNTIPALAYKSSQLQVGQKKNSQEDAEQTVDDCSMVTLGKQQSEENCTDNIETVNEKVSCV
Description: as §1, §2, §3, §4
Rat cerebral cortex was homogenized in 20 volumes of ice-cold Tris-HCl buffer (50 mM, pH 7.7) using an ULTRA TURAX homogeniser, and centrifuged at 32000 g for 20 min. The resulting pellet was resuspended in the same quantity of the buffer centrifuged for 20 min. The final pellet was resuspended in 50 volumes of the Tris-HCl buffer.
Total binding each assay tube was added 900 µL of the tissue suspension, 50 µL of 0.6 nM [^3H]ketanserin (60.0 Ci/mmol, Perkin Elmer Life Sciences, Boston, MA, USA), 50 µL Tris-HCl buffer.
Non-specific binding each assay tube was added 900 µL of the tissue suspension, 50 µL of 0.6 nM [^3H]ketanserin, 50 µL of 10 µM methisergide.
Specific binding each assay tube was added 900 µL of the tissue suspension, 50 µL of 0.6 nM [^3H]ketanserin, […] of new compounds or reference drug.
as §5

[3] = molecular target: T3, serotonin 5-HT1A receptor (Rattus norvegicus, UniProt P19327); experiment: 5-HT1A binding assay ([3H]8-OH-DPAT, rat brain cortex); conditions: read-out: Ki±SEM, 5HT1A
T3 construct: Rat cerebral cortex was homogenized in 20 volumes of ice-cold Tris-HCl buffer; from tissue; host or cells: rat brain (cerebral) cortex
T3 sequence (P19327 1-422): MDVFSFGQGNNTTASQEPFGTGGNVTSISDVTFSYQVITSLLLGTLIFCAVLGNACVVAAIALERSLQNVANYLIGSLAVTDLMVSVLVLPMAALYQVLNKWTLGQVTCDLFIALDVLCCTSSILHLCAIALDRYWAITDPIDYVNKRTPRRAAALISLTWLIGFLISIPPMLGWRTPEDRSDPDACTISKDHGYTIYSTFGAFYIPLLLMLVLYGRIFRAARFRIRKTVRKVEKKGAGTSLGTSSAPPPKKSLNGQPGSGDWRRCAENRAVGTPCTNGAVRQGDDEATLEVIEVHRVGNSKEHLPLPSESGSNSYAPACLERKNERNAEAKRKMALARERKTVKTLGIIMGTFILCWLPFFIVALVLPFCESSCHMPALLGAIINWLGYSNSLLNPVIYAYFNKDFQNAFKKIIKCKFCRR
Description: as §1, §2, §3, §4
Rat cerebral cortex was homogenized in 20 volumes of ice-cold Tris-HCl buffer (50 mM, pH 7.7) using an ULTRA TURAX homogeniser, and was then centrifuged at 32000 g for 10 min. […] The final pellet was resuspended in Tris-HCl buffer containing 10 µM Pargyline, 4 mM CaCl2 and 0.1% ascorbic acid.
Total binding each assay tube was added 900 µL of the tissue suspension, 50 µL of 0.5 nM [^3H]8-OH-DPAT (187.4 Ci/mmol, Perkin Elmer Life Sciences, Boston, MA, USA), 50 µL Tris-HCl buffer containing 10 µM Pargyline, 4 mM CaCl2 and 0.1% ascorbic acid.
Non-specific binding each assay tube was added 900 µL of the tissue suspension, 50 µL of 0.5 nM [^3H]8-OH-DPAT, 50 µL of 10 µM serotonin.
Specific binding each assay tube was added 900 µL of the tissue suspension, 50 µL of 0.5 nM [^3H]8-OH-DPAT, 50 µL of new compounds or reference drug.
as §5, with “5mL” for “5 mL”

[4] = molecular target: T4, dopamine D2 receptor (Rattus norvegicus, UniProt P61169); experiment: D2 dopaminergic binding assay ([3H]spiperone, rat striatum); conditions: read-out: Ki±SEM, D2
T4 construct: Rat striatum was homogenized in 20 volumes of ice-cold 50 mM Tris-HCl buffer; from tissue; host or cells: rat striatum
T4 sequence (P61169 whole entry): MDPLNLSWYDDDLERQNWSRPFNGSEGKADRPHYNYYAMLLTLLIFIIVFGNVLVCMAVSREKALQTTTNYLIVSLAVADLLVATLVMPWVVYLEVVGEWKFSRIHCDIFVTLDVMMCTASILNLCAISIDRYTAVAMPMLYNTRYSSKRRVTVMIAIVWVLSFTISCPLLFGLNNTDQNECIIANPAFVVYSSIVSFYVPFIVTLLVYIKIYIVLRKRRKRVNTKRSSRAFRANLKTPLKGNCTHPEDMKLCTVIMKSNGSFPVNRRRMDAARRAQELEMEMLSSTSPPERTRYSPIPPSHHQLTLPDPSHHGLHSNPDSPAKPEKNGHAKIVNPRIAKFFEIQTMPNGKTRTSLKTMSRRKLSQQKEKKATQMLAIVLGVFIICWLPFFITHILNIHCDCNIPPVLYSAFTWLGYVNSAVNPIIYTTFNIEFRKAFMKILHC
Description: as §1, §2, §3, §4
Rat striatum was homogenized in 20 volumes of ice-cold 50 mM Tris-HCl buffer (pH 7.7) using an ULTRA TURAX homogeniser, and centrifuged twice for 10 min at 48,000 g with resuspension of the pellet in fresh buffer. The final pellet was resuspended in 50 mM ice-cold Tris-HCl containing 120 mM NaCl, 5 mM KCl, 2 mM CaCl2, 1 mM MgCl2, 0.1% ascorbic acid and 5 µM pargyline.
Total binding each assay tube was added 900 µL of the tissue suspension, 50 µL of 0.5 nM [^3H]spiperone (16.2 Ci/mmol; Perkin Elmer Life Sciences, Boston, MA, USA), 50 µL Tris-HCl buffer containing 120 mM NaCl, 5 mM KCl, 2 mM CaCl2, 1 mM MgCl2, 0.1% ascorbic acid and 5 µM pargyline.
Non-specific binding each assay tube was added 900 µL of the tissue suspension, 50 µL of 0.5 nM [^3H]spiperone, 50 µL of 10 µM (+)-butaclamol.
Specific binding each assay tube was added 900 µL of the tissue suspension, 50 µL of 0.5 nM [^3H]spiperone, 50 µL of new compounds or reference drug.
as §5

[5] = molecular target: T5, histamine H1 receptor (Cavia porcellus, UniProt P31389); experiment: Histamine H1 binding assay ([3H]pyrilamine, guinea pig cerebellum); conditions: read-out: Ki±SEM, H1
T5 construct: Guinea pig cerebellum was homogenized in 20 volumes of ice-cold 50 mM phosphate buffer; from tissue; host or cells: guinea pig cerebellum
T5 sequence (P31389 whole entry): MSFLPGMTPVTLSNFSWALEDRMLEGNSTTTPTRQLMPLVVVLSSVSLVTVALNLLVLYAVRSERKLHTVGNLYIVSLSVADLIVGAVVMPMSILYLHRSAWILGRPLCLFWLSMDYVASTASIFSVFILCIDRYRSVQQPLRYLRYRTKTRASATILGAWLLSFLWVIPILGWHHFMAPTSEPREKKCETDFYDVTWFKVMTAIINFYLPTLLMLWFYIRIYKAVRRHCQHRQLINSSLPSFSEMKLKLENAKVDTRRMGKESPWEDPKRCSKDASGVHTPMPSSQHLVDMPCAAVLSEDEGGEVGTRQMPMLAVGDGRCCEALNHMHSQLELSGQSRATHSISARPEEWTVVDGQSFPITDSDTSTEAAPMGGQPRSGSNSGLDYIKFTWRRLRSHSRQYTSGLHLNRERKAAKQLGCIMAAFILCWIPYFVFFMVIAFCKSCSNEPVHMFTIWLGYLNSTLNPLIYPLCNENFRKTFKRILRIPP
Description: as §1, §2, §3, §4, §5

[6] = molecular target: T6, serotonin 5-HT2C receptor (Rattus norvegicus, UniProt P08909); experiment: 5-HT2C binding assay ([3H]mesulergine, rat brain cortex); conditions: mean of three experiments, read-out: Ki±SEM, 5HT2C
T6 construct: Rat cerebral cortex was homogenized in 20 volumes of ice-cold Tris-HCl buffer; from tissue; host or cells: rat brain (cerebral) cortex
T6 sequence (P08909 33-460): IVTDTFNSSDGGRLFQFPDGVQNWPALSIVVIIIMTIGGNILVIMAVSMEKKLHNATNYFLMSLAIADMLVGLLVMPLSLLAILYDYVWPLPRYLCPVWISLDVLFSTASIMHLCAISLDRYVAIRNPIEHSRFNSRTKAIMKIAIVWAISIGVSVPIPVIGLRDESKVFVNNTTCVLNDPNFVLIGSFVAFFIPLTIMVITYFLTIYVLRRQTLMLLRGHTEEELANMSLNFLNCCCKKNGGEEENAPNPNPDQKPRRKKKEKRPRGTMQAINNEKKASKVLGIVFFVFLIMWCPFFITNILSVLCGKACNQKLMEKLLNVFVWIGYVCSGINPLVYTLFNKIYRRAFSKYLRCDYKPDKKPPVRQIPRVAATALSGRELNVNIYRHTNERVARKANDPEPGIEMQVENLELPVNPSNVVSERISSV
Description: as §1
Total binding was determined in the absence of no-specific binding and compounds. Specific binding was determined in the presence of compounds. Non-specific binding was determined as the difference between total and specific binding. […]
Ki values were calculated based on the Cheng and Prussoff equation: Ki = IC50/(1+C/Kd) where C represents the concentration of the hot ligand used and Kd its receptor dissociation constant were calculated for each labeled ligand. […]
The resulting pellet was resuspended in the same quantity of the buffer centrifuged for 20 min. […]
as §5

[7] = system: apomorphine-induced climbing behavior in mice; experiment: Apomorphine-induced climbing; assay type: in vivo; conditions: Mus musculus, po, read-out: Apomorphine-induced climbing ED50 (A)
Description: . […] . Animals were then challenged at 30 minutes post-injection with 1.0 mg/kg of the apomorphine in 0.9% NaCl+0.1% ascorbic acid, placed in cylindrical wire cages (12 cm in diameter, 14 cm in height), and observed for climbing behavior at 10, 20 and 30 min post dose. The climbing behaviour was scored as follows: 3–4 paws on the cage floor = 0 score; 2 and 3 paws on the cage = 1 score; 4 paws on the cage = 2 score.

[8] = system: MK-801-induced hyperactivity in mice; experiment: MK-801-induced hyperactivity; conditions: Mus musculus, po, read-out: MK-801-induced hyperactivity ED50 (B)
[9] = in vivo; conditions: Kun Ming (KM), mouse, po
[10] = mice, 95% confidence limits in parentheses

COc1ccc(-c2nnc(SCCCN3CCC(c4noc5cc(F)ccc45)CC3)o2)cc1 [Compound 14, 2-(3-(4-(6-fluorobenzo[d]isoxazol-3-yl)piperidin-1-yl)propylthio)-5-(4-methoxyphenyl)-1,3,4-oxadiazole]
Ki [1]: 0.219 ± 0.0352 µM | Ki [2]: 0.00022 ± 2e-05 µM | Ki [3]: 0.0068 ± 0.0007 µM | Ki [4]: 0.0148 ± 0.0018 µM | Ki [5]: 0.0132 ± 0.0034 µM

Fc1ccc2c(C3CCN(CCCSc4nnc(-c5ccc(Cl)cc5)o4)CC3)noc2c1 [Compound 16, 2-(3-(4-(6-fluorobenzo[d]isoxazol-3-yl)piperidin-1-yl)propylthio)-5-(4-chlorophenyl)-1,3,4-oxadiazole]
Ki [6]: 0.502 ± 0.0562 µM | Ki [1]: 0.0155 ± 0.0019 µM | Ki ([2]; [3H]ketanserin, rat brain cortex, mean of three experiments, >10000 marked b: Ki not calculated, inhibition at 10 µM too low): 0.0066 ± 0.0008 µM | Ki ([3]; [3H]8-OH-DPAT, rat brain cortex, mean of three experiments, >10000 marked b: Ki not calculated, inhibition at 10 µM too low): 0.0105 ± 0.0012 µM | Ki ([4]; [3H]spiperone, rat striatum, mean of three experiments, >10000 marked b: Ki not calculated, inhibition at 10 µM too low): 0.0183 ± 0.0016 µM | Ki ([5]; [3H]pyrilamine, guinea pig cerebellum, mean of three experiments, >10000 marked b: Ki not calculated, inhibition at 10 µM too low): 0.0189 ± 0.0021 µM

CN1CCN(C2=Nc3cc(Cl)ccc3Nc3ccccc32)CC1 [clozapine]
ED50 [7, 10]: 7.99 mg/kg | ED50 [8]: 5.06 mg/kg | ED50 [9]: 92.7 mg/kg

O=C(CCCN1CCC(O)(c2ccc(Cl)cc2)CC1)c1ccc(F)cc1 [haloperidol]
ED50 [7, 10]: 0.09 mg/kg | ED50 [8]: 0.19 mg/kg | ED50 [9]: 0.22 mg/kg

Cc1nc2n(c(=O)c1CCN1CCC(c3noc4cc(F)ccc34)CC1)CCCC2 [risperidone]
ED50 [7]: 0.02 mg/kg
